Experimental data taken from patent US20210290818A1, “SCAFFOLDING MATERIAL, METHODS AND USES” (LOCATE THERAPEUTICS LIMITED, priority 2016, published 2021).
Counter-ions that a name gives are not always drawn.

Experiment: In house cohesion test of pastes (mass loss after sintering and immersion in water)
Format: physicochemical
Conditions: for Effect of plasticiser in liquid carrier on paste cohesion: PLGA 95:5/PEG400/CS pellets, FIG. 4
Protocol: Pastes were prepared by mixing particles with a liquid carrier and their setting was assessed using an ‘in house’ cohesion test. Briefly, following paste sintering, aluminium foils containing the pastes were placed onto a sieve mesh and immersed to a depth of around 1 cm of water for 1 minute (FIG. 1). Afterwards, they were carefully removed from the sieve. The samples were freeze-dried and weighed so that mass loss could be estimated.
A 355 μm sieve (Endecotts, BS410/1986) was placed on to its dedicated collection tray. • 2×100 mg of particles were manually mixed in an aluminium foil (4×4 cm circa) with 70 μl of each liquid carrier. • The obtained pastes were left to sinter in a sealed plastic bag with humidity >90% for different times. • Following sintering at RT or 37° C. in a humidified environment (>90% RH), the aluminium foils containing the pastes were placed onto the sieve mesh. • A constant, gentle, circa 7 ml/sec flow of water (Millipore, Direct-Q® 3 UV) was applied to the sieve mesh, until the samples became immersed in circa 1 cm of water. • Following immersion, samples were allowed to remain immersed in the head of water for circa 1 minute. • After the 1 minute, the sieve was removed from the sieve tray and the aluminium foils containing the samples were carefully removed from the sieve. • The samples with the aluminium foil were freeze-dried and weighed so that mass loss could be estimated. • The sieve tray (which was still filled with water) was visually inspected for the presence of particles that may have been lost from the samples during.

| Structure (SMILES) | Effect of plasticiser in liquid carrier on paste cohesion | Importance of plasticiser in liquid carrier for paste setting (PLGA50:50/PEG400/SIM pellets, sintering 10 to 60 min at 37° C., FIG. 6) |
| --- | --- | --- |
| CCOC(=O)CC(O)(CC(=O)OCC)C(=O)OCC [TEC, TriEthyl Citrate] | behave in a similar way |  |
| CCO [ethanol, Ethanol] |  | not important for paste setting |
| CC(=O)OCC(COC(C)=O)OC(C)=O [TA, triacetin] | behave in a similar way |  |
